Assay results reported in BindingDB's records for patent US20250074911 (Crossfire Oncology Holding, 2025).

Biological target: Tyrosine-protein kinase BTK (Homo sapiens, UniProt Q06187)
Test: Biochemical kinase assay wt-BTK
Experimental: To determine the inhibitory activity of compounds on wt-BTK enzyme activity, the IMAP assay (Molecular Devices) was used. Compounds were serially diluted in dimethylsulfoxide (DMSO) and subsequently in 4% DMSO in IMAP reaction buffer, which consists of 10 mM Tris-HCl, pH 15 7.5, 10 mM MgCl2, 0.01% Tween-20, 0.1% NaN3 and 1 mM freshly prepared dithiotreitol (DTT). Compound solution was mixed with an equal volume of full-length wt-BTK enzyme (Carna Biosciences, cat. no. 08-180) in IMAP reaction buffer. After pre-incubation of 1 hour in the dark at room temperature, fluorescein-labeled MBP-derived substrate peptide (Molecular Devices, cat. no. RP 7123) was added, followed by ATP to start the reaction. Final enzyme concentration was 1.2 nM, final substrate concentration 50 nM, and final ATP concentration was 4 μM. The reaction was allowed to proceed for 2 hours at room temperature in the dark. The reaction was stopped by quenching with IMAP progressive binding solution according to the protocol of the manufacturer (Molecular Devices). Fluorescein polarization was measured on an Envision multimode reader (Perkin Elmer, Waltham, MA, U.S.A.).

Sequence of Tyrosine-protein kinase BTK (Q06187 whole entry): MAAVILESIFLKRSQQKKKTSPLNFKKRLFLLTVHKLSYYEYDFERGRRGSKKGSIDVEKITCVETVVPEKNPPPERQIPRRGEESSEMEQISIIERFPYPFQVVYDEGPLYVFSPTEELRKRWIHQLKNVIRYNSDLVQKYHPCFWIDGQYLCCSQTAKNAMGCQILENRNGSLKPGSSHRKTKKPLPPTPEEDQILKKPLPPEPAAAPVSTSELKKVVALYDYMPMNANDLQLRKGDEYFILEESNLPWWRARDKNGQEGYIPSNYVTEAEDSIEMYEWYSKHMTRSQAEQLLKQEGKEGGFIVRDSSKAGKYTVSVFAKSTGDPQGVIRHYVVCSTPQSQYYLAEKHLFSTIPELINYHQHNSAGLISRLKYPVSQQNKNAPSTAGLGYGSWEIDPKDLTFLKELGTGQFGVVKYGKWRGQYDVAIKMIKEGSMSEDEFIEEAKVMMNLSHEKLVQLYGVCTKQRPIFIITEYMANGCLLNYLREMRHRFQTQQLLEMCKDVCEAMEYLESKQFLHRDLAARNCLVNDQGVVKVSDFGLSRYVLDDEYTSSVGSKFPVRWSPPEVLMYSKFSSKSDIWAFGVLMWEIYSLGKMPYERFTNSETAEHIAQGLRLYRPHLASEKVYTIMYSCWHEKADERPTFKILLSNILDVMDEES

IC50: < 5 nM
SMILES: C[C@@H]1CCn2nc(-c3ccc(C(=O)Nc4cc(C(F)(F)F)ccn4)cc3)c3c(N)ncc(c32)/C=C/CCCCC(=O)N1 [US20250074911, Example 54]
